# Reference: US20090253768A1, “THERAPEUTIC COMPOUNDS FOR DISEASES AND DISORDERS” (Myriad Genetics, Incorporated, priority 2006, published 2009)
# Tested on: khc/+; klc/+ Drosophila larvae
# Experiment: Suppression of the flipper (tail-flipping) motor dysfunction phenotype in an animal model
# Assay type: in vivo, Drosophila melanogaster
# Conditions: for larvae effectively "cured" of their motor dysfunction: after accounting for penetrance
# Excerpt: A stock of fruit flies (Drosophila melanogaster) was generated that is heterozygous for both KHC and KLC, which encode proteins that associate to form functional kinesin-1, also called conventional kinesin. […] A number of factors that contribute to this incomplete penetrance were identified, including the following: • 1. The flipper phenotype of a given animal appears to be suppressed by the number of larvae that precede the animal in development. That is, if a larva is among the first to develop in a vial of eggs, it is more likely to show the flipper phenotype than if it is one of the last to emerge. • 2. The flipper phenotype appears to be less robust on hard media than it is on soft media. • 3. The phenotype is diminished by physically disturbing the larvae. • 4. The clearest expression of the flipper phenotype is restricted to that phase of the 3rd instar stage of development that follows the appearance of spiracles.
# Attempts to accommodate these observations were mad in order to optimize penetrance of the phenotype. Specifically: • 1. Virgin females and males were confined to a single vial for only 2 days; the flies were then transferred to fresh vials for an additional 2 days; and this process was repeated to minimize the number of larvae that would emerge in each vial. • 2. Efforts were taken to minimize handling of the larvae. • 3. Attempts were made to score the phenotype late in the 3rd instar stage of development.
# In a non-blinded experiment, compound 16 (Tables 1 and 2) was tested for its ability to suppress the flipper phenotype of khc/+; klc/+ Drosophila larvae (using the animal model described in Example 7), relative to vehicle (DMSO) alone. Specifically khc/+; klc/+ Drosophila larvae were grown in the presence or absence of 0.5 mM compound 16 and scored for motor dysfunction. A total of 151 larvae were scored, 77 in the vehicle-only group and 74 in the vehicle plus compound group. […] The ratio of Flipper to Non-Flipper phenotype observed in the vehicle-only group corresponds to an 81% penetrance of the flipper phenotype in this experiment. […] Note that equivalent conclusions were obtained if, instead of scoring the number of larvae with and without motor dysfunction, the severity of the aberrant movement was analyzed.
# This experiment was repeated using a blinded format and a total of 221 larvae were scored. Of the larvae in this study 104 larvae were in the vehicle-only group and 117 larvae were in the treatment group. […] The results of this second study are quite similar to those of the first study: after accounting for the differences in penetrance between the studies, compound 16 effectively “cured” 42% of the larvae of their motor dysfunction in the first experiment, and 43% of the larvae in the second experiment.
compound,measurement,setting,value
"Cc1c(-c2ccccc2)cc(-c2ccc(C(F)(F)F)cc2)n1-c1ccc(CCCC(=O)O)cc1 [Compound 16, 4-{4-[2-Methyl-3-phenyl-5-(4-trifluoromethyl-phenyl)-pyrrol-1-yl]-phenyl}-butyric acid]",reduction in flipper phenotype relative to vehicle,"blinded repeat, 117 treated vs 104 vehicle larvae, vehicle penetrance 78%, Yates' chi-square p <1x10^-6",highly significant reduction in flipper phenotype
same,"larvae effectively ""cured"" of their motor dysfunction","first (non-blinded) experiment, 0.5 mM",42%
same,suppression of the Flipper phenotype relative to vehicle (DMSO),"non-blinded experiment, larvae grown with 0.5 mM compound, 74 treated vs 77 vehicle larvae, vehicle penetrance 81%, Fischer's test p less than 10^-4",significant suppression of the Flipper phenotype
same,"larvae effectively ""cured"" of their motor dysfunction",second (blinded) experiment,43%
